Here are results for nine compounds from US20260053932A1, “COMPOUNDS AND METHODS FOR THE TARGETED DEGRADATION OF ANDROGEN RECEPTOR AND ASSOCIATED METHODS OF USE” (Arvinas Operations, Inc., priority 2020, published 2026).

Usually DC50 stands for the concentration giving 50% degradation.

This assay relates to androgen receptor (AR) in LNCaP and/or VCaP cells. Kind of assay: Androgen Receptor ELISA assay (AR degradation). The format is cell-based. The settings on record: degradation of AR ELISA in LNCaP and/or VCaP cells; Table 2C; read-out: DC50 Code*. Put shortly:
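VCaP cells grown ≥3 days, then treated 5 h with compound in media containing 1 nM R1881 (10× stock). Cells lysed and AR quantified by sandwich ELISA (mouse AR detection Ab, HRP anti-mouse, TMB). DC50 and Dmax derived from AR degradation.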
For orientation: An ELISA detects its analyte on a solid surface through an enzyme-linked reagent.
Consider `Cc1cc(O[C@H]2C(C)(C)[C@H](NC(=O)c3cnc(N4CCC5(CC4)CN([C@H]4C[C@H](Oc6ccc7c(c6)C(=O)N(C6CCC(=O)NC6=O)C7=O)C4)CCO5)cn3)C2(C)C)cc(C)c1C#N` (mixture of isomers) [compound 236, rac-N-((1r,3r)-3-(4-cyano-3,5-dimethylphenoxy)-2,2,4,4-tetramethylcyclobutyl)-5-(4-((1r,3r)-3-((2-(2,6-dioxopiperidin-3-yl)-1,3-dioxoisoindolin-5-yl)oxy)cyclobutyl)-1-oxa-4,9-diazaspiro[5.5]undecan-9-yl)pyrazine-2-carboxamide], for which the half-maximal degradation concentration (DC50) is less than 1 nM. In the case of `CCOc1cc(O[C@H]2C(C)(C)[C@H](NC(=O)c3cnc(N4CC(CN(C(C)C)[C@H]5C[C@H](Oc6ccc7c(c6)C(=O)N(C6CCC(=O)NC6=O)C7=O)C5)C4)cn3)C2(C)C)ccc1C#N` (stereo partly drawn) [compound 134, N-((1r,3r)-3-(4-cyano-3-ethoxyphenoxy)-2,2,4,4-tetramethylcyclobutyl)-5-(3-((((1r,3r)-3-((2-(2,6-dioxopiperidin-3-yl)-1,3-dioxoisoindolin-5-yl)oxy)cyclobutyl) (isopropyl)amino)methyl)azetidin-1-yl)pyrazine-2-carboxamide], the DC50 was 1 to 10 nM. For `COCCOCCN(CC1CCN(c2ncc(C(=O)N[C@H]3C(C)(C)[C@H](Oc4cc(C)c(C#N)c(C)c4)C3(C)C)cn2)CC1)[C@H]1C[C@H](Oc2ccc3c(c2)C(=O)N(C2CCC(=O)NC2=O)C3=O)C1` (stereo partly drawn) [compound 89, N-((1r,3r)-3-(4-cyano-3,5-dimethylphenoxy)-2,2,4,4-tetramethylcyclobutyl)-2-(4-((((1r,3r)-3-((2-(2,6-dioxopiperidin-3-yl)-1,3-dioxoisoindolin-5-yl)oxy)cyclobutyl)(2-(2-methoxyethoxy)ethyl)amino)methyl)piperidin-1-yl)pyrimidine-5-carboxamide] the value was less than 1 nM; for `CC1(C)[C@H](NC(=O)c2ccc(N3CCC(CN4CCN(c5ccc6c(c5)C5(CC5)N(C5CCC(=O)NC5=O)C6=O)CC4)CC3)cc2)C(C)(C)[C@H]1Oc1ccc(C#N)c(Cl)c1` (stereo partly drawn) [compound 139, N-((1r,3r)-3-(3-chloro-4-cyanophenoxy)-2,2,4,4-tetramethylcyclobutyl)-4-(4-((4-(2′-(2,6-dioxopiperidin-3-yl)-3′-oxospiro[cyclopropane-1,1′-isoindolin]-6′-yl)piperazin-1-yl)methyl)piperidin-1-yl)benzamide], greater than 100 nM; for `CC(C)Oc1cc(N2CCN(CC3CCN(c4ncc(C(=O)N[C@H]5C(C)(C)[C@H](Oc6ccc(C#N)c(Cl)c6)C5(C)C)cn4)CC3)CC2)cc2c1C(=O)N(C1CCC(=O)NC1=O)C2=O` (stereo partly drawn) [compound 103, N-((1r,3r)-3-(3-chloro-4-cyanophenoxy)-2,2,4,4-tetramethylcyclobutyl)-2-(4-((4-(2-(2,6-dioxopiperidin-3-yl)-7-isopropoxy-1,3-dioxoisoindolin-5-yl)piperazin-1-yl)methyl)piperidin-1-yl)pyrimidine-5-carboxamide], less than 1 nM. The value for `Cc1cc(O[C@H]2C(C)(C)[C@H](NC(=O)c3cnc(N4CCC(CN(C)[C@H]5C[C@H](Oc6ccc7c(c6)C(=O)N(C6CCC(=O)NC6=O)C7=O)C5)CC4)nc3)C2(C)C)cc(C)c1C#N` (stereo partly drawn) [compound 86, N-((1r,3r)-3-(4-cyano-3,5-dimethylphenoxy)-2,2,4,4-tetramethylcyclobutyl)-2-(4-((((1r,3r)-3-((2-(2,6-dioxopiperidin-3-yl)-1,3-dioxoisoindolin-5-yl)oxy)cyclobutyl) (methyl)amino)methyl)piperidin-1-yl)pyrimidine-5-carboxamide] was less than 1 nM; that for `Cc1cc(O[C@H]2C(C)(C)[C@H](NC(=O)c3cnc(N4CC(CN5CCC(Oc6ccc7c(c6)C(=O)N(C6CCC(=O)NC6=O)C7=O)CC5)C4)cn3)C2(C)C)cc(C)c1C#N` (stereo partly drawn) [compound 117, N-((1r,3r)-3-(4-cyano-3,5-dimethylphenoxy)-2,2,4,4-tetramethylcyclobutyl)-5-(3-((4-((2-(2,6-dioxopiperidin-3-yl)-1,3-dioxoisoindolin-5-yl)oxy)piperidin-1-yl)methyl)azetidin-1-yl)pyrazine-2-carboxamide] was less than 1 nM. As for `COCCN(CC1CCN(c2cnc(C(=O)N[C@H]3C(C)(C)[C@H](Oc4cc(C)c(C#N)c(C)c4)C3(C)C)cn2)CC1)[C@H]1C[C@H](Oc2ccc3c(c2)C(=O)N(C2CCC(=O)NC2=O)C3=O)C1` (stereo partly drawn) [compound 119, N-((1r,3r)-3-(4-cyano-3,5-dimethylphenoxy)-2,2,4,4-tetramethylcyclobutyl)-5-(4-((((1r,3r)-3-((2-(2,6-dioxopiperidin-3-yl)-1,3-dioxoisoindolin-5-yl)oxy)cyclobutyl)(2-methoxyethyl)amino)methyl)piperidin-1-yl)pyrazine-2-carboxamide], the DC50 was less than 1 nM. Regarding `COc1cc(OCCN2CCOC3(CCN(c4ccc(C(=O)N[C@H]5C(C)(C)[C@H](Oc6cc(C)c(C#N)c(C)c6)C5(C)C)cc4)CC3)C2)cc2c1C(=O)N(C1CCC(=O)NC1=O)C2=O` (stereo partly drawn) [compound 215, N-((1r,3r)-3-(4-cyano-3,5-dimethylphenoxy)-2,2,4,4-tetramethylcyclobutyl)-4-(4-(2-((2-(2,6-dioxopiperidin-3-yl)-7-methoxy-1,3-dioxoisoindolin-5-yl)oxy)ethyl)-1-oxa-4,9-diazaspiro[5.5]undecan-9-yl)benzamide], the DC50 is less than 1 nM.
